Laboratory results reported in article PMC11062899, “De novo development of small cyclic peptides that are orally bioavailable” (Nature Chemical Biology, 2023).
Values joined by “and” are separate entries in the source; they are usually repeats but may differ in a detail not shown here. Equal entries are not always repeated.

Columns and labels:
human α-thrombin = human α-thrombin (Homo sapiens, UniProt P00734); test: Protease inhibition, Ki for human α-thrombin (fluorogenic substrate Z-Gly-Gly-Arg-AMC); type: biochemical; details: replicates R1-R3
Method in brief: (§1)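 Ki values come from Cheng–Prusoff correction of IC50, itself fitted by four-parameter logistic regression of activity versus a no-peptide control. Assays used 2 nM human or 3 nM rat thrombin, 50 μM Z-Gly-Gly-Arg-AMC, 30 min kinetic fluorescence at 25 °C.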

rat α-thrombin = target: T1, rat α-thrombin (Rattus norvegicus, UniProt P18292); test: Protease inhibition, Ki for rat α-thrombin (fluorogenic substrate Z-Gly-Gly-Arg-AMC); type: biochemical; details: replicates R1-R3
T1 construct: rat α-thrombin (Molecular Innovations) were used at final concentrations of 2 nM and 3 nM; purchased Molecular Innovations
Method in brief: as §1

porcine pepsin = target: T2, porcine pepsin (Sus scrofa, UniProt P00791); test: Peptide stability in simulated gastric fluid (SGF); type: in vitro ADME
T2 construct: 0.32 g of porcine pepsin (Sigma-Aldrich, P7125) was dissolved under gentle agitation; purchased Sigma-Aldrich P7125
Method in brief: (§2)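 Peptide from a 1 mM DMSO stock was added to fluid pre-warmed at 37 °C. SGF was pH 1.2 NaCl with porcine pepsin (0.32 g per 100 ml), and SIF was pH 6.8 potassium phosphate with porcine pancreatin (1 g per 100 ml). Supernatant peptide was quantified by LC–MS, with residual expressed as T1/T0.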

[1] = Peptide stability in simulated intestinal fluid (SIF); type: in vitro ADME, porcine; details: simulated gi fluid; 8 h, 37 °C, pH 6.8; read-out: Proteolytic stability: SIF (8 h) % remaining
Method in brief: as §2

porcine pancreatin = test: as above; type: in vitro ADME; details: after 8 h vs 0 h (TIC)
Method in brief: as §2

[2] = Passive artificial membrane permeability (PAMPA)
[3] = Metabolic stability in rat liver microsomes (RLMs); details: rat, microsomes
[4] = peptide 1.33E+02 uM, slope of proteolytic substrate cleavage over time

T2 sequence (P00791 60-385): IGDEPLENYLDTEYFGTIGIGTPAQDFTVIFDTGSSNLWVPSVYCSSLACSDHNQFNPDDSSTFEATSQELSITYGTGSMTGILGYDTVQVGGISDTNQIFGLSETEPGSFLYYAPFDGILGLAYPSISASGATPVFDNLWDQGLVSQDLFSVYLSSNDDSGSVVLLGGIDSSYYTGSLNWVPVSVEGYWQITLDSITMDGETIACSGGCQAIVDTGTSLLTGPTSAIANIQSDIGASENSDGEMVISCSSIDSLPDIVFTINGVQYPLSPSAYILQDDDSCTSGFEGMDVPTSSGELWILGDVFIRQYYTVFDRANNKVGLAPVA

## O=C1CCSC/C=C/CSCCNC(=O)[C@H](CNC(=O)c2ccc(Cl)s2)NC(=O)[C@H](Cc2ccccn2)N1 [compound 22]
Human α-thrombin; peptide 1.02E-03 uM
  Human alpha thrombin inhibition, slope normalized to DMSO: 102.8 and 97.7 and 93.9
Human α-thrombin; peptide 1.04E+00 uM
  Human alpha thrombin inhibition, slope normalized to DMSO: 77.5 and 70.0 and 74.3
Human α-thrombin; peptide 1.27E-04 uM
  Human alpha thrombin inhibition, slope normalized to DMSO: 100.4 and 110.4 and 99.0
Human α-thrombin; peptide 1.30E-01 uM
  Human alpha thrombin inhibition, slope normalized to DMSO: 97.9 and 99.8 and 91.2
Human α-thrombin; [4]
  Human alpha thrombin inhibition, slope normalized to DMSO: 5.1 and 4.3 and 6.3
Human α-thrombin; peptide 1.63E-02 uM
  Human alpha thrombin inhibition, slope normalized to DMSO: 96.1 and 101.1 and 95.8
Human α-thrombin; peptide 1.67E+01 uM
  Human alpha thrombin inhibition, slope normalized to DMSO: 20.9 and 21.1 and 17.2
Human α-thrombin; peptide 2.03E-03 uM
  Human alpha thrombin inhibition, slope normalized to DMSO: 100.4 and 98.0 and 100.5
Human α-thrombin; peptide 2.08E+00 uM
  Human alpha thrombin inhibition, slope normalized to DMSO: 66.4 and 63.2 and 62.8
Human α-thrombin; peptide 2.54E-04 uM
  Human alpha thrombin inhibition, slope normalized to DMSO: 104.5 and 97.0 and 96.4
Human α-thrombin; peptide 2.60E-01 uM
  Human alpha thrombin inhibition, slope normalized to DMSO: 95.1 and 92.0 and 90.3
Human α-thrombin; peptide 3.18E-05 uM
  Human alpha thrombin inhibition, slope normalized to DMSO: 99.7 and 98.9 and 101.2
Human α-thrombin; peptide 3.26E-02 uM
  Human alpha thrombin inhibition, slope normalized to DMSO: 99.6 and 98.9 and 96.4
Human α-thrombin; peptide 3.33E+01 uM
  Human alpha thrombin inhibition, slope normalized to DMSO: 10.4 and 11.3 and 12.9
Human α-thrombin; peptide 4.07E-03 uM
  Human alpha thrombin inhibition, slope normalized to DMSO: 102.1 and 98.1 and 100.5
Human α-thrombin; peptide 4.17E+00 uM
  Human alpha thrombin inhibition, slope normalized to DMSO: 49.4 and 48.2 and 42.7
Human α-thrombin; peptide 5.09E-04 uM
  Human alpha thrombin inhibition, slope normalized to DMSO: 105.6 and 97.1 and 101.8
Human α-thrombin; peptide 5.21E-01 uM
  Human alpha thrombin inhibition, slope normalized to DMSO: 84.4 and 88.3 and 83.4
Human α-thrombin; peptide 6.36E-05 uM
  Human alpha thrombin inhibition, slope normalized to DMSO: 104.9 and 95.6
Human α-thrombin; peptide 6.51E-02 uM
  Human alpha thrombin inhibition, slope normalized to DMSO: 99.3 and 101.7 and 95.4
Human α-thrombin; peptide 6.67E+01 uM
  Human alpha thrombin inhibition, slope normalized to DMSO: 5.8 and 5.7 and 8.8
Human α-thrombin; peptide 8.14E-03 uM
  Human alpha thrombin inhibition, slope normalized to DMSO: 101.9 and 98.8 and 103.6
Human α-thrombin; peptide 8.33E+00 uM
  Human alpha thrombin inhibition, slope normalized to DMSO: 31.4 and 24.4 and 30.5
Rat α-thrombin; [4]
  Rat alpha thrombin inhibition, slope normalized to DMSO: 2.8 and 3.3 and 1.9
Rat α-thrombin; peptide 1.67E+01 uM
  Rat alpha thrombin inhibition, slope normalized to DMSO: 7.6 and 6.1 and 7.2
Rat α-thrombin; peptide 2.08E+00 uM
  Rat alpha thrombin inhibition, slope normalized to DMSO: 33.9 and 32.6 and 33.7
Rat α-thrombin; peptide 3.33E+01 uM
  Rat alpha thrombin inhibition, slope normalized to DMSO: 4.8 and 4.2 and 4.5
Rat α-thrombin; peptide 4.17E+00 uM
  Rat alpha thrombin inhibition, slope normalized to DMSO: 21.3 and 20.5 and 20.2
Rat α-thrombin; peptide 6.67E+01 uM
  Rat alpha thrombin inhibition, slope normalized to DMSO: 3.3 and 2.6 and 2.7
Rat α-thrombin; peptide 8.33E+00 uM
  Rat alpha thrombin inhibition, slope normalized to DMSO: 13.5 and 12.2 and 12.7
Porcine pepsin; after 8 h vs 0 h (TIC), average of R1-R3
  SGF stability, Residual peptide Average: 96.43
Porcine pepsin; after 8 h vs 0 h (TIC), single replicates R1-R3
  SGF stability, Residual peptide: 98.71 and 95.02 and 95.57
Porcine pepsin; simulated gi fluid, 8 h, 37 °C, pH 1.2, read-out: Proteolytic stability: SGF (8 h) % remaining
  remaining at 8 h: 96 ± 2%
[1]
  remaining at 8 h: 96 ± 9%
Porcine pancreatin; average of R1-R3
  SIF stability, Residual peptide Average: 96.16
Porcine pancreatin; single replicates R1-R3
  SIF stability, Residual peptide: 94.79 and 87.84 and 105.86
[2]; 50 μM, 12–18 h, acceptor concentration relative to equilibrium
  PAMPA permeability: % permeability: 16 ± 7%
[2]; PAMPA, pH 7.4
  Papp at 50 μM: 1.05 ×10⁻⁶ cm/s
[2]; PAMPA, average of R1-R3
  Permeability% Average: 15.5%
[2]; PAMPA, replicate R1, TIC of top well sample relative to sample at theoretical equilibrium
  Permeability% R1: 9.36%
[2]; PAMPA, replicate R3, TIC of top well sample relative to sample at theoretical equilibrium
  Permeability% R3: 23.67%
[3]; CL (ul/min/mg protein) R1, RLM CL, replicate R1
  microsomal CLint: 266 µL/min/mg
[3]; CL (ul/min/mg protein) R2, RLM CL, replicate R2
  microsomal CLint: 255 µL/min/mg
[3]; CL (ul/min/mg protein) R3, RLM CL, replicate R3
  microsomal CLint: 248 µL/min/mg
[3]; Half Life (min) R1, RLM metabolic stability, replicate R1, 0-60 min
  half-life: 5.21 min
[3]; Half Life (min) R2, RLM metabolic stability, replicate R2, 0-60 min
  half-life: 5.44 min
[3]; Half Life (min) R3, RLM metabolic stability, replicate R3, 0-60 min
  half-life: 5.58 min
[3]; Metabolic stability: Half life T1/2 (min), RLMs, mean and SD, three measurements
  half-life: 5.4 ± 0.2 min
[3]; Metabolic stability: RLM CL (ul/min/mg), RLMs, mean and SD, three measurements
  microsomal CLint: 260 ± 10 µL/min/mg
